In patent publication US20240092758A1, “IMIDAZOLO INDAZOLE COMPOUNDS AS JAK INHIBITORS” (Theravance Biopharma R&D IP, LLC, priority 2021, published 2024):

Experiments:
[1] = tested on: IL-13 induced STAT6 phosphorylation in BEAS-2B human lung epithelial cells; test: Cellular JAKI potency assay (BEAS-2B); assay type: cell-based; settings: Homo sapiens, BEAS-2B, BEAS-2B cells, read-out: BEAS2B pIC50 (converted)
Method: The JAKI cellular potency assay was carried out by measuring inhibition of interleukin-13 (IL-13, R&D Systems) induced STAT6 phosphorylation in BEAS-2B human lung epithelial cells (ATCC). BEAS-2B cells were grown at 37° C. in a 5% CO2 humidified incubator in 50% DMEM/50% F-12 medium (Life Technologies) supplemented with 10% FBS (Hyclone), 100 U/mL penicillin, 100 μg/mL streptomycin (Life Technologies), and 2 mM GlutaMAX (Life Technologies). On day 1 of the assay, cells were seeded at a 7,500 cells/well density in white poly-D-lysine-coated 384-well plates (Corning) with 25 μL medium and were allowed to adhere overnight in the incubator. On day 2 of the assay, the medium was removed and replaced with 12 μL of assay buffer (Hank's Balanced Salt Solution/HBSS, 25 mM HEPES, and 1 mg/ml bovine serum albumin/BSA) containing dose-responses of test compounds. Compounds were serially diluted in DMSO and then diluted another 1000-fold in media to bring the final DMSO concentration to 0.1%. Cells were incubated with test compounds at 37° C. for 1 h and followed by the addition of 12 μl of pre-warmed IL-13 (80 ng/mL in assay buffer) for stimulation. After incubating at 37° C. for 30 min, the assay buffer (containing compound and IL-13) was removed, and 10 μL of cell lysis buffer (25 mM HEPES, 0.1% SDS, 1% NP-40, 5 mM MgCl2, 1.3 mM EDTA, 1 mM EGTA, supplemented with Complete Ultra mini protease inhibitors and PhosSTOP from Roche Diagnostics). The plates were shaken at ambient temperature for 30 min before the addition of detection reagents. Levels of pSTAT6 were measured using the AlphaLISA SureFire Ultra pSTAT6 (Tyr641) assay kit from PerkinElmer. For dose-response analysis, percent inhibition data were plotted vs. compound concentrations, and IC50 values were determined from a 4-parameter robust fit model with the Graphpad Prism software. Results are expressed as the negative logarithm of the IC50 value, pIC50.
Test compounds having a lower IC50 value or higher pIC50 value in this assay show greater inhibition of IL-13 induced STAT6 phosphorylation.

JAK2 = JAK2 (Homo sapiens (Human), UniProt O60674); test: Biochemical JAK kinase assay (LanthaScreen), JAK2; settings: for Ki: read-out: JAK2 pKi (converted)
Method: (§1) A panel of four LanthaScreen JAK biochemical assays (JAK1, 2, 3 and Tyk2) were carried in a common kinase reaction buffer (50 mM HEPES, pH 7.5, 0.01% Brij-35, 10 mM MgCl2, and 1 mM EGTA). Recombinant GST-tagged JAK enzymes and a GFP-tagged STAT1 peptide substrate were obtained from Life Technologies.
(§2) Serially diluted compounds were pre-incubated with each of the four JAK enzymes and the substrate in white 384-well microplates (Corning) at ambient temperature for 1 h. ATP was subsequently added to initiate the kinase reactions in 10 μL total volume, with 1% DMSO. The final enzyme concentrations for JAK1, 2, 3 and Tyk2 are 4.2 nM, 0.1 nM, 1 nM, and 0.25 nM respectively; the corresponding Km ATP concentrations used are 25 μM, 3 μM, 1.6 μM, and 10 μM; while the substrate concentration is 200 nM for all four assays. Kinase reactions were allowed to proceed for 1 hour at ambient temperature before a 10 μL preparation of EDTA (10 mM final concentration) and Tb-anti-pSTAT1 (pTyr701) antibody (Life Technologies, 2 nM final concentration) in TR-FRET dilution buffer (Life Technologies) was added. The plates were allowed to incubate at ambient temperature for 1 h before being read on the EnVision reader (Perkin Elmer). Emission ratio signals (520 nm/495 nm) were recorded and utilized to calculate the percent inhibition values based on DMSO and background controls.
(§3) For dose-response analysis, percent inhibition data were plotted vs. compound concentrations, and IC50 values were determined from a 4-parameter robust fit model with the Prism software (GraphPad Software). Results were expressed as pIC50 (negative logarithm of IC50) and subsequently converted to pKi (negative logarithm of dissociation constant, Ki) using the Cheng-Prusoff equation.
(§4) Test compounds having a lower Ki value or higher pKi value in the four JAK assays show greater inhibition of JAK activity.

JAK1 = JAK1 (Homo sapiens (Human), UniProt P23458); test: Biochemical JAK kinase assay (LanthaScreen), JAK1; settings: for Ki: read-out: JAK1 pKi (converted)
Method: as §1, §2, §3, §4

Chain of JAK1 (P23458 whole entry): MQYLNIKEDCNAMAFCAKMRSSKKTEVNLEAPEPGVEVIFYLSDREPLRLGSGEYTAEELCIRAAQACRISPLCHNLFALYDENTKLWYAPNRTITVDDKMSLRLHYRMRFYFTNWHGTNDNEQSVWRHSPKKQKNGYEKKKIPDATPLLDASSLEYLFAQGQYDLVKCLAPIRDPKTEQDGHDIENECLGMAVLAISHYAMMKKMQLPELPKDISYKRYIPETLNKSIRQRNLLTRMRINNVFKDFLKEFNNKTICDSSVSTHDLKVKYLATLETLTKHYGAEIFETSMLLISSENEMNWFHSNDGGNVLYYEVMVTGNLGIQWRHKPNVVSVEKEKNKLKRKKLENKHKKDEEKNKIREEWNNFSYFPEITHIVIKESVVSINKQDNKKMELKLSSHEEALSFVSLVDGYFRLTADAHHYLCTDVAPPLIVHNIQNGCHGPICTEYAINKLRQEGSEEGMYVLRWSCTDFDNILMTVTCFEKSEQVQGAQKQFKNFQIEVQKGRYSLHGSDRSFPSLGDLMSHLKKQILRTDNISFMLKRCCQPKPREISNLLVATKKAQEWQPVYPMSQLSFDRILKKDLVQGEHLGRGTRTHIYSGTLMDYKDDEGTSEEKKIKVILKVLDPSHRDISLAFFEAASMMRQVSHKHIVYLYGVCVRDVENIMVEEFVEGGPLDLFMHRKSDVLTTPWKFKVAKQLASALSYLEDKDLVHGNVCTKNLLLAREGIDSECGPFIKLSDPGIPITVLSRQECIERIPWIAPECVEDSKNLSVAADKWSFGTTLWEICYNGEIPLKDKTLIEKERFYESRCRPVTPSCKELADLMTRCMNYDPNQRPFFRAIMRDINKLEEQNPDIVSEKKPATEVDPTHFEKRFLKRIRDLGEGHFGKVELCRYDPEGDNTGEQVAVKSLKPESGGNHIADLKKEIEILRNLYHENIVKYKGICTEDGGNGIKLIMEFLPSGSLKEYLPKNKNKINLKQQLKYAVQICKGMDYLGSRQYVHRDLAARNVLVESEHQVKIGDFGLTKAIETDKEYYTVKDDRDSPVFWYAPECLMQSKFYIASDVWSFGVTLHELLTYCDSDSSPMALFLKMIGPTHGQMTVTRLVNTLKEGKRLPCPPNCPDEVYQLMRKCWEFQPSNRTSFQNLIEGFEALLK
Chain of JAK2 (O60674 whole entry): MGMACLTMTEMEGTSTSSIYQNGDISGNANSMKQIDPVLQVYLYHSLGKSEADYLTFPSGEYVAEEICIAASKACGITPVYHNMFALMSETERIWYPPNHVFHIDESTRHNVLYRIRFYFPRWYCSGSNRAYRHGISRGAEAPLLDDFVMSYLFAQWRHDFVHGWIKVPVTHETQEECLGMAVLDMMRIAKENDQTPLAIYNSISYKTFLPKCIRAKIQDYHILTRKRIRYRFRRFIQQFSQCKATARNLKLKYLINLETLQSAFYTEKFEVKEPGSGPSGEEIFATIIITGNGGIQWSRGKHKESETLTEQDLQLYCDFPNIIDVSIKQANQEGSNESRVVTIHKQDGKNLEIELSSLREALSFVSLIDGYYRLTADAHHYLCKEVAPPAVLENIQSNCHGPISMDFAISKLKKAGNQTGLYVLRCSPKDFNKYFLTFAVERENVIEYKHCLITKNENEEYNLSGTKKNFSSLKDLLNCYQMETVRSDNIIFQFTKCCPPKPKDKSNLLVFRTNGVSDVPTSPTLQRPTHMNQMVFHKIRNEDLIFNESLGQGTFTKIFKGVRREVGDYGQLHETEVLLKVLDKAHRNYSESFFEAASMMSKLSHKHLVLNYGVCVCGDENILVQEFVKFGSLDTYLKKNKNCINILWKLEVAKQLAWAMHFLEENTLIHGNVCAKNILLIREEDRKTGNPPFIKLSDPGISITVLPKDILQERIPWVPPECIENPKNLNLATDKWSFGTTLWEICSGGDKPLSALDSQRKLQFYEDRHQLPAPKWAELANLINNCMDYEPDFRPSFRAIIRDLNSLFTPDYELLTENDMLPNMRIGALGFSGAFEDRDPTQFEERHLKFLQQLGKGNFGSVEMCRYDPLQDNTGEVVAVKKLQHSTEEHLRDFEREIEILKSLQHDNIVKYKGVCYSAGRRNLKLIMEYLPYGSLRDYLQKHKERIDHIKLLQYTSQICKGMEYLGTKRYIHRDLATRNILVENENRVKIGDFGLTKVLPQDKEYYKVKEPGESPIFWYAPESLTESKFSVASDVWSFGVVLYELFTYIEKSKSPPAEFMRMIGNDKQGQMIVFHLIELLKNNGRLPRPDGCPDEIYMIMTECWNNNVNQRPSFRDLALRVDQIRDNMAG

SMILES | IC50 [1] | Ki (JAK2) | Ki (JAK1) | JAK2 pKi (JAK2) | JAK1 pKi (JAK1)
CCc1cc(O)ccc1-c1ccc2c(-c3nc(C4=CCN(CCNC(=O)C5CCC5)CC4)c[nH]3)n[nH]c2c1F [Example 317] | 10 to 31.6 nM | 0.1 to 1 nM | 0.1 to 1 nM | – | –
CCc1cc(O)ccc1-c1ccc2c(-c3nc(C4=CC[C@H](C)N(C5CCOCC5)C4)c[nH]3)n[nH]c2c1F [Example 268] | 10 to 31.6 nM | 0.1 to 1 nM | 0.1 to 1 nM | – | –
CCc1cc(O)ccc1-c1ccc2c(-c3nc(C4=CCN(CCC5(O)CC5)C4)c[nH]3)n[nH]c2c1F [Example 320] | 10 to 31.6 nM | – | 0.1 to 1 nM | A (A represents a pKi value ≥10 (Ki≤0.1 nM)) | –
CCc1cc(O)ccc1-c1ccc2c(-c3nc(C4=C[C@H](CC(=O)OC)NC4)c[nH]3)n[nH]c2c1F [Example 253] | 3.16 to 10 nM | – | – | A (A represents a pKi value ≥10 (Ki≤0.1 nM)) | A (A represents a pKi value ≥10 (Ki≤0.1 nM))
CCc1cc(O)ccc1-c1ccc2c(-c3nc(C4=C(C(=O)OC)CCNC4)c[nH]3)n[nH]c2c1F [Example 295] | 3.16 to 10 nM | – | 0.1 to 1 nM | A (A represents a pKi value ≥10 (Ki≤0.1 nM)) | –
CCc1cc(O)ccc1-c1ccc2c(-c3nc(C4=C[C@H](CCO)NC4)c[nH]3)n[nH]c2c1F [Example 314] | 10 to 31.6 nM | 0.1 to 1 nM | 0.1 to 1 nM | – | –
CCc1cc(O)ccc1-c1ccc2c(-c3nc(C4=CCN(Cc5cn[nH]c5)C4)c[nH]3)n[nH]c2c1 [Example 296] | 10 to 31.6 nM | – | – | A (A represents a pKi value ≥10 (Ki≤0.1 nM)) | A (A represents a pKi value ≥10 (Ki≤0.1 nM))
CCc1cc(O)ccc1-c1ccc2c(-c3nc(C4=CCN(C5COC5)C4)c[nH]3)n[nH]c2c1 [Example 73] | 10 to 31.6 nM | – | 0.1 to 1 nM | A (A represents a pKi value ≥10 (Ki≤0.1 nM)) | –
CCc1cc(O)ccc1-c1ccc2c(-c3nc(C4=CCC5(CNC5)OC4)c[nH]3)n[nH]c2c1 [Example 229] | 31.6 to 100 nM | – | 0.1 to 1 nM | A (A represents a pKi value ≥10 (Ki≤0.1 nM)) | –
CCOC(=O)C1=C(c2c[nH]c(-c3n[nH]c4cc(-c5ccc(O)cc5CC)ccc34)n2)CCNC1 [Example 354] | 31.6 to 100 nM | 0.1 to 1 nM | 0.1 to 1 nM | – | –
CCc1cc(O)ccc1-c1ccc2c(-c3nc(C4=CCN(CCC(C)(C)O)CC4)c[nH]3)n[nH]c2c1 [Example 35] | 3.16 to 10 nM | – | – | A (A represents a pKi value ≥10 (Ki≤0.1 nM)) | A (A represents a pKi value ≥10 (Ki≤0.1 nM))
CCc1cc(O)c(F)cc1-c1ccc2c(-c3nc(C4=CCNC4)c[nH]3)n[nH]c2c1 [Example 285] | 3.16 to 10 nM | – | – | A (A represents a pKi value ≥10 (Ki≤0.1 nM)) | A (A represents a pKi value ≥10 (Ki≤0.1 nM))
CCc1cc(O)ccc1-c1ccc2c(-c3nc(C4=CCCN(CCN5CCNC5=O)C4)c[nH]3)n[nH]c2c1F [Example 125] | 31.6 to 100 nM | 0.1 to 1 nM | 0.1 to 1 nM | – | –
CCc1cc(O)ccc1-c1ccc2c(-c3nc(C4=C[C@H](CO)N(C5CCOCC5)C4)c[nH]3)n[nH]c2c1F [Example 274] | 10 to 31.6 nM | – | – | A (A represents a pKi value ≥10 (Ki≤0.1 nM)) | A (A represents a pKi value ≥10 (Ki≤0.1 nM))
CCc1cc(O)ccc1-c1ccc2c(-c3nc(C4=CCN(C(=O)[C@H](COC)NC)C4)c[nH]3)n[nH]c2c1F [Example 375] | 31.6 to 100 nM | – | 0.1 to 1 nM | A (A represents a pKi value ≥10 (Ki≤0.1 nM)) | –
CCc1cc(O)ccc1-c1ccc2c(-c3nc(C4=CCCN(CCCOC)C4)c[nH]3)n[nH]c2c1 [Example 65] | 3.16 to 10 nM | 0.1 to 1 nM | 0.1 to 1 nM | – | –
CCc1cc(O)ccc1-c1ccc2c(-c3nc(C4=CCN(CCNC(C)=O)CC4)c[nH]3)n[nH]c2c1 [Example 100] | 3.16 to 10 nM | – | – | A (A represents a pKi value ≥10 (Ki≤0.1 nM)) | A (A represents a pKi value ≥10 (Ki≤0.1 nM))
CCc1cc(O)ccc1-c1ccc2c(-c3nc(C4=CC5CN(C)CCN5CC4)c[nH]3)n[nH]c2c1F (stereo not drawn) [Example 335] | 10 to 31.6 nM | 0.1 to 1 nM | 0.1 to 1 nM | – | –
CCc1cc(O)ccc1-c1ccc2c(-c3nc(C4=CCN(S(C)(=O)=O)C4)c[nH]3)n[nH]c2c1 [Example 167] | 3.16 to 10 nM | 1 to 10 nM | 0.1 to 1 nM | – | –
CCc1cc(O)c(C)cc1-c1ccc2c(-c3nc(C4=CCNCC4)c[nH]3)n[nH]c2c1F [Example 371] | 31.6 to 100 nM | 1 to 10 nM | 1 to 10 nM | – | –
CCc1cc(O)ccc1-c1ccc2c(-c3nc(C4=C[C@H](CC(=O)N5CCN(C)CC5)NC4)c[nH]3)n[nH]c2c1F [Example 373] | 31.6 to 100 nM | – | 0.1 to 1 nM | A (A represents a pKi value ≥10 (Ki≤0.1 nM)) | –
CCc1cc(O)ccc1-c1ccc2c(-c3nc(C4=CCN(CCN5CCNC5=O)CC4)c[nH]3)n[nH]c2c1F [Example 120] | 10 to 31.6 nM | 0.1 to 1 nM | 0.1 to 1 nM | – | –
CCc1cc(O)ccc1-c1ccc2c(-c3nc(C4=CCN(CCSC)CC4)c[nH]3)n[nH]c2c1 [Example 76] | 10 to 31.6 nM | 0.1 to 1 nM | 0.1 to 1 nM | – | –
CCc1cc(O)ccc1-c1ccc2c(-c3nc(C4=CCN(CC5CCCO5)CC4)c[nH]3)n[nH]c2c1F (stereo not drawn) [Example 62] | 10 to 31.6 nM | – | 0.1 to 1 nM | A (A represents a pKi value ≥10 (Ki≤0.1 nM)) | –
CCc1cc(O)ccc1-c1ccc2c(-c3nc(C4=CCN(C[C@H](C)CO)C4)c[nH]3)n[nH]c2c1F [Example 332] | 10 to 31.6 nM | 0.1 to 1 nM | 0.1 to 1 nM | – | –
CCc1cc(O)ccc1-c1ccc2c(-c3nc(C4=CCN(Cc5cnc[nH]5)CC4)c[nH]3)n[nH]c2c1 [Example 131] | 10 to 31.6 nM | – | – | A (A represents a pKi value ≥10 (Ki≤0.1 nM)) | A (A represents a pKi value ≥10 (Ki≤0.1 nM))
CCc1cc(O)ccc1-c1ccc2c(-c3nc(C4=C[C@H](CO)N(C5COC5)C4)c[nH]3)n[nH]c2c1F [Example 273] | 10 to 31.6 nM | – | 0.1 to 1 nM | A (A represents a pKi value ≥10 (Ki≤0.1 nM)) | –
